Article PMC9412374, “Design, Synthesis, and Development of pyrazolo[1,5-a]pyrimidine Derivatives as a Novel Series of Selective PI3Kδ Inhibitors: Part I—Indole Derivatives” (Pharmaceuticals, 2022)
≈ marks a conversion by molar mass, not a printed value. Where two headings read alike, the source gives them in different places.

Columns and labels:
[1] = biological target: T1, PI3Kδ (Homo sapiens, UniProt O00329); experiment: In vitro kinase inhibition assay for PI3K (ADP-Glo), PI3Kδ; assay type: biochemical; conditions: recombinant kinase, mean of two independent experiments
T1 construct: purchased Merck Millipore
T1 sequence (P27986 whole entry): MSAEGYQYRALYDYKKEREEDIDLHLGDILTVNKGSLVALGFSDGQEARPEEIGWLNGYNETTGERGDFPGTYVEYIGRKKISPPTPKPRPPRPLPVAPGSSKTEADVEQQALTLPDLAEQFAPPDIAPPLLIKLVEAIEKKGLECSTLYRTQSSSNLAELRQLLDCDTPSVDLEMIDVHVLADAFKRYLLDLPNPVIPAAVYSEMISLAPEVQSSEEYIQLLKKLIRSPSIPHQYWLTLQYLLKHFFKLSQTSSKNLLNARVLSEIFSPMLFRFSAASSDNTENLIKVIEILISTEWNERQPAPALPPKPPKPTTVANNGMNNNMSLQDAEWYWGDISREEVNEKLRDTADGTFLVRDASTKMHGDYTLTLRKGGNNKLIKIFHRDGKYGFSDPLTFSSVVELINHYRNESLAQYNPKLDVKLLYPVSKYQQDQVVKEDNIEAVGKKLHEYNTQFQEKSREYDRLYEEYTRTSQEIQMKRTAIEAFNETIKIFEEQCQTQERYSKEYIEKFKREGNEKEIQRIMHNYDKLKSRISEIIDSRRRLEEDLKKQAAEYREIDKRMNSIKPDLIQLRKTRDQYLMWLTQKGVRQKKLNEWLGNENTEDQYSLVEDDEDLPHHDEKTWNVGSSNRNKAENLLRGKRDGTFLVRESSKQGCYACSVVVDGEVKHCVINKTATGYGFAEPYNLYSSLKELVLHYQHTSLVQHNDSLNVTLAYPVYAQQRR
T1 sequence (O00329 whole entry): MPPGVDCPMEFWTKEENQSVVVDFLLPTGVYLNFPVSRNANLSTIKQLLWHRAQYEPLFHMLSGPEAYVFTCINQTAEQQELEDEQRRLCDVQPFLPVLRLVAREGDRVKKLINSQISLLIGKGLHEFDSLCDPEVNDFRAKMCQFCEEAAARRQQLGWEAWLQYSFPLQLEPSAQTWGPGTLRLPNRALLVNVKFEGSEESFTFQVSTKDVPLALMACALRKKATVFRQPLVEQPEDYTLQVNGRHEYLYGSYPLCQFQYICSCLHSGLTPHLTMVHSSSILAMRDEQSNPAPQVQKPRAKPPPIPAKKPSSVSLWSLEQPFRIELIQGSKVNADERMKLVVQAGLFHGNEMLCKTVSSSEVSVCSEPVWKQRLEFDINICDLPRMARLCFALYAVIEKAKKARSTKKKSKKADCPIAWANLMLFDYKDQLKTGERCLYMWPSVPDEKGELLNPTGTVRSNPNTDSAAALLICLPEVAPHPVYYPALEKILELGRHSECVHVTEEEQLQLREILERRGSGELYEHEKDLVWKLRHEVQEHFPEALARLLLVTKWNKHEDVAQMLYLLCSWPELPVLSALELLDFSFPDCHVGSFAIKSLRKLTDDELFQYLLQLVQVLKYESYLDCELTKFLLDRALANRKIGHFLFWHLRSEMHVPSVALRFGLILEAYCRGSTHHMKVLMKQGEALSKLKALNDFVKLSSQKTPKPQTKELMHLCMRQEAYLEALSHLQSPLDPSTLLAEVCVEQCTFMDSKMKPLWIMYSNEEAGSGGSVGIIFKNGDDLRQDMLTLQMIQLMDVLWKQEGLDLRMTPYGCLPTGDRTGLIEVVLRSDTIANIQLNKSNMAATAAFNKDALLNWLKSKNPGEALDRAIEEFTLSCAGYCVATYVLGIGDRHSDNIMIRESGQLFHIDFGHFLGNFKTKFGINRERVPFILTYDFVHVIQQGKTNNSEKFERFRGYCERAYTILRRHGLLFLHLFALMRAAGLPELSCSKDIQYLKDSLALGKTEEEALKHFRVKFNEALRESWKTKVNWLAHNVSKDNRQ
Description: (§1) Tested compounds were dissolved in 100% DMSO, and obtained solutions were serially diluted in 1× reaction buffer. The recombinant kinase solution was diluted in a reaction mixture comprising 5× reaction buffer, respective compound solution (1 mM sodium diacetate 4,5-bisphosphate phosphatidylinositol (PIP2) solution in 40 mM Tris buffer), and water. In a 96-wells plate, 5 μL of compound solutions and 15 μL of the kinase solution in the reaction mixture were added per well. To initiate the interaction of chemical compounds to be tested with the enzyme, the plate was incubated for 10 min at a suitable temperature in a plate thermostat with orbital shaking at 600 rpm. Negative control wells contained all the above reagents except tested compound and kinase, and positive control wells contained all the above reagents except tested compounds. […] Subsequently, the plate was incubated for 1 h at 25 or 30 °C (depending on the PI3K isoform tested) in a plate thermostat with orbital shaking of the plate contents at 600 rpm. The reaction conditions are combined in the table below (Table 6).
(§2) Detection of ADP formed in the enzymatic reaction was then performed using ADP-Glo Kinase Assay™ (Promega, Madison, WI, USA). To the wells of a 96-well plate, 25 μL of ADP-Glo Reagent™ was added, and the plate was incubated for 40 min at 25 °C in a plate thermostat with orbital shaking at 600 rpm. Then 50 μL of Kinase Detection Reagent were added to each well, and the plate was incubated for 40 min at 25 °C in a plate thermostat with orbital shaking at 600 rpm. Once the incubation was complete, the luminescence intensity was measured using a Victor Light luminometer (Perkin Elmer, Inc., Waltham, MA, USA). IC50 values were determined based on luminescence intensity measured in wells containing tested compounds at different concentrations in relation to control wells. […] Each compound was tested at least in quadruplicates (4 wells) on two 96-well plates utilizing at least 4 wells for each control.

[2] = biological target: T2, PI3Kα (Homo sapiens, UniProt P42336); experiment: In vitro kinase inhibition assay for PI3K (ADP-Glo), PI3Kα; assay type: biochemical; conditions: for IC50: IC50 PI3K α, recombinant kinase, ADP-Glo, mean of two independent experiments; for Fold Selectivity α/δ: ratio of IC50 PI3Kα to IC50 PI3Kδ
T2 construct: purchased Carna Biosciences
T2 sequence (P42336 whole entry): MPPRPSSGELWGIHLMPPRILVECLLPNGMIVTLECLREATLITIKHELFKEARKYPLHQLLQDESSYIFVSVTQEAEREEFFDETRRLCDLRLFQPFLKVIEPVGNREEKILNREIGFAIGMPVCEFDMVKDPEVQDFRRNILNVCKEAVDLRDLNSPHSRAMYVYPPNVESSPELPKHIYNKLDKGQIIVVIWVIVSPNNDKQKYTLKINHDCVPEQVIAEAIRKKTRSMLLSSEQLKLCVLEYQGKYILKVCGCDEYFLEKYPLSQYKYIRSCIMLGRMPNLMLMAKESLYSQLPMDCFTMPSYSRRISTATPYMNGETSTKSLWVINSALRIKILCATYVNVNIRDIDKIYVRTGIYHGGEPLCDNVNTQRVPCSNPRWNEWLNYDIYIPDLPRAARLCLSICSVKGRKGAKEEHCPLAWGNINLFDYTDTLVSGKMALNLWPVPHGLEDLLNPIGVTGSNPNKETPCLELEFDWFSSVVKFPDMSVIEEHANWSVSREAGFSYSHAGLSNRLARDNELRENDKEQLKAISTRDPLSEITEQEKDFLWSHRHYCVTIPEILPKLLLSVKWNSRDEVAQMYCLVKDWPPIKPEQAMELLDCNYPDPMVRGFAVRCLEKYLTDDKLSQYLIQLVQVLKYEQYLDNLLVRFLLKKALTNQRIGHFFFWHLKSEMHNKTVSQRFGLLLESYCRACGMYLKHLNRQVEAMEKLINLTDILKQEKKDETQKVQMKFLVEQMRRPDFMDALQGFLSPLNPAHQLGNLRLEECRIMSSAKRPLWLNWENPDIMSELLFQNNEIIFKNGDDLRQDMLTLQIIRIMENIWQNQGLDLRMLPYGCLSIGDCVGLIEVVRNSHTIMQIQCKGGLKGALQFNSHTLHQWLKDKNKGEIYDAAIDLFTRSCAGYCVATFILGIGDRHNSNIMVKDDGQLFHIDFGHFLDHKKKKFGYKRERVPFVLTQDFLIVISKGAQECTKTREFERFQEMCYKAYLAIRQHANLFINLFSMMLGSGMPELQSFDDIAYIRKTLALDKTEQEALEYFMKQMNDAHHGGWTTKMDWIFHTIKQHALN
T2 sequence (P27986 whole entry partner): as the sequence (P27986 whole entry) above
Description: Tested compounds were dissolved in 100% DMSO, and obtained solutions were serially diluted in 1× reaction buffer. The recombinant kinase solution was diluted in a reaction mixture comprising 5× reaction buffer, respective compound solution (1 mM sodium diacetate 4,5-bisphosphate phosphatidylinositol (PIP2) solution in 40 mM Tris buffer), and water. In a 96-wells plate, 5 μL of compound solutions and 15 μL of the kinase solution in the reaction mixture were added per well. To initiate the interaction of chemical compounds to be tested with the enzyme, the plate was incubated for 10 min at a suitable temperature in a plate thermostat with orbital shaking at 600 rpm. Negative control wells contained all the above reagents except tested compound and kinase, and positive control wells contained all the above reagents except tested compounds. The enzymatic reaction was initiated by adding 5 μL of 150 μM ATP solution. Subsequently, the plate was incubated for 1 h at 25 or 30 °C (depending on the PI3K isoform tested) in a plate thermostat with orbital shaking of the plate contents at 600 rpm. The reaction conditions are combined in the table below (Table 6).
Detection of ADP formed in the enzymatic reaction was then performed using ADP-Glo Kinase Assay™ (Promega, Madison, WI, USA). To the wells of a 96-well plate, 25 μL of ADP-Glo Reagent™ was added, and the plate was incubated for 40 min at 25 °C in a plate thermostat with orbital shaking at 600 rpm. Then 50 μL of Kinase Detection Reagent were added to each well, and the plate was incubated for 40 min at 25 °C in a plate thermostat with orbital shaking at 600 rpm. Once the incubation was complete, the luminescence intensity was measured using a Victor Light luminometer (Perkin Elmer, Inc., Waltham, MA, USA). IC50 values were determined based on luminescence intensity measured in wells containing tested compounds at different concentrations in relation to control wells. These values were calculated with Graph Pad 5.03 software by fitting the curve using non-linear regression. Each compound was tested at least in quadruplicates (4 wells) on two 96-well plates utilizing at least 4 wells for each control. Averaged results of inhibition activity respective to specific isoforms of PI3K kinases for tested compounds are presented as IC50 values in Table 1, Table 2, Table 3 and Table 4.

[3] = biological target: T3, PI3Kβ (Homo sapiens, UniProt P42338); experiment: In vitro kinase inhibition assay for PI3K (ADP-Glo), PI3Kβ; assay type: biochemical; conditions: for Fold Selectivity β/δ: ratio of IC50 PI3Kβ to IC50 PI3Kδ
T3 construct: purchased Merck Millipore
T3 sequence (P42338 whole entry): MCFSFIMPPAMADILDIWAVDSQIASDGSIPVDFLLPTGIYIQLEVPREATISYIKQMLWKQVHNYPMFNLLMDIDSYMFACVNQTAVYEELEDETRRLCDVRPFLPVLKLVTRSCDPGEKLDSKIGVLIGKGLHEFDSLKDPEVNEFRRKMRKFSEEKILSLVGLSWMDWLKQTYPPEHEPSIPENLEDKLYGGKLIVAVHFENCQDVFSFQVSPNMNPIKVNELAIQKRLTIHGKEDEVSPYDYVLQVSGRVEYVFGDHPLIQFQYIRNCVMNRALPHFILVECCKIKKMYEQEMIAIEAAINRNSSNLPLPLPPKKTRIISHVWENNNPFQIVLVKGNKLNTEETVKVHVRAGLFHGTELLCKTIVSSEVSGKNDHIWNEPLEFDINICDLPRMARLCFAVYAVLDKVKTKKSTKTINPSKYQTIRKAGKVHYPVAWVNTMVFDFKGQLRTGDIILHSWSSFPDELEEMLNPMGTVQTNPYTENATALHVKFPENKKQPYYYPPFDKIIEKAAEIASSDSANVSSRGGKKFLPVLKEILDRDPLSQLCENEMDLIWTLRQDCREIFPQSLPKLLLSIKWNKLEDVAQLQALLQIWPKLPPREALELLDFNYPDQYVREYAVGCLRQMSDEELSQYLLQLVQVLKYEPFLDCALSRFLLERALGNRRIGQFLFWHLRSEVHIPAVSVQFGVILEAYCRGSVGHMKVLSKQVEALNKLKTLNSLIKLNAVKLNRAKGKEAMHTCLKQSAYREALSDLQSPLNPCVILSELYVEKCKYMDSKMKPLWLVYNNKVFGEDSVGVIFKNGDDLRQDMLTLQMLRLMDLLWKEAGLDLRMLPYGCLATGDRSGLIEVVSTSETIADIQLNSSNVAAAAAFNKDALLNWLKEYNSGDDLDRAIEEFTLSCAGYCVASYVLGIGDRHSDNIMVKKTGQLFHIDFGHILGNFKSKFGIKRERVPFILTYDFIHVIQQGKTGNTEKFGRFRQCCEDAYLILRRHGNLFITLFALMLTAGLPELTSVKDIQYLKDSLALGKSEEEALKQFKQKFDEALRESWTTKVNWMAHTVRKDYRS
T3 sequence (P27986 whole entry, further chain): as the sequence (P27986 whole entry) above
Description: as §1, §2

[4] = biological target: T4, PI3Kγ (Homo sapiens, UniProt P48736); experiment: In vitro kinase inhibition assay for PI3K (ADP-Glo), PI3Kγ; assay type: biochemical; conditions: for Fold Selectivity γ/δ: ratio of IC50 PI3Kγ to IC50 PI3Kδ
T4 construct: purchased Merck Millipore
T4 sequence (P48736 whole entry): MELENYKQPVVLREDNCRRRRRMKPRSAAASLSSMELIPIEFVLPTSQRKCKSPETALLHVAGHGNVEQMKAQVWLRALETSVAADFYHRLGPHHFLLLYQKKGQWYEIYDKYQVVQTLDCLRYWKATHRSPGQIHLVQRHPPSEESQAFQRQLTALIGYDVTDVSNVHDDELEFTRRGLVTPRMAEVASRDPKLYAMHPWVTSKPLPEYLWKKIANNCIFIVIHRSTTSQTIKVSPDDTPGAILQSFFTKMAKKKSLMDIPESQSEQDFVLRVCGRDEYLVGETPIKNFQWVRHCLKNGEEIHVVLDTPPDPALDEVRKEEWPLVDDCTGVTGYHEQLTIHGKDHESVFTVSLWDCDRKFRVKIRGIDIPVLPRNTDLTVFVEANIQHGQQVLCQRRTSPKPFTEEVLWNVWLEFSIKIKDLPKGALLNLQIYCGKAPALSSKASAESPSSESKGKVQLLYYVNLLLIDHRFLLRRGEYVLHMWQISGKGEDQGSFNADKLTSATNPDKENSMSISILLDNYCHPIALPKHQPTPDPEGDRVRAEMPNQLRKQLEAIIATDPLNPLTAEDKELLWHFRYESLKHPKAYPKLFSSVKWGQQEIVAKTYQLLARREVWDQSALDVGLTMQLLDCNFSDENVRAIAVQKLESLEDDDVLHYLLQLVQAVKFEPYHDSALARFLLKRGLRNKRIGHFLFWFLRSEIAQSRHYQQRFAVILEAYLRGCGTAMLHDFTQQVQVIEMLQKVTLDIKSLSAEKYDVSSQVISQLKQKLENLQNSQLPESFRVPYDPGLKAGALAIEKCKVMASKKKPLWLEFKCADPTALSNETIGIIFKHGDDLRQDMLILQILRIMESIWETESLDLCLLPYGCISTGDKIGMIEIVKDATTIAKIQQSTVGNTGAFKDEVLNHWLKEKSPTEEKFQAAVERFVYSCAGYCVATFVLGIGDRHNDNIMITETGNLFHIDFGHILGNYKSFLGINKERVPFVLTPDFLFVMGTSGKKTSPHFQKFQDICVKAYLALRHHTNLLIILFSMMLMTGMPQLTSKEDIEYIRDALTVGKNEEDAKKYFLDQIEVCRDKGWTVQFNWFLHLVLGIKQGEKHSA
Description: as §1, §2

[5] = tested on: CD19 cells; experiment: B cells proliferation by flow cytometry (CFSE); assay type: cell-based; conditions: B-cell, 96 h, CD19 cells from PBMC, activated by αIgM and ODN2006, four days
Description: CD19 cells were isolated from PBMC using magnetic beads (Stem Cell, Cambridge, MA, USA) and then labeled with 2 µM CFSE (Invitrogen, Waltham, MA, USA).
After four days, cells were stained with LIVE/DEAD™ kit (Invitrogen, Waltham, MA, USA). Samples were acquired using Attune NxT Flow Cytometer (Invitrogen, Waltham, MA, USA) and analyzed using FlowJo software. Each biological assay was performed with cells isolated from a different donor. The presented results constitute the average value of the percentage of proliferating cells from 3 independent experiments.

[6] = Kinetic solubility, shake-flask protocol; assay type: physicochemical; conditions: aqueous buffer, kinetic from dmso stock, pH 7.4 phosphate-buffered saline, 25 °C, 500 µM compound
Description: Kinetic solubility was determined by the shake-flask protocol. Appropriate compounds (500 µM) were incubated in an aqueous buffer (0.1 M phosphate-buffered saline pH 7.4) at 25 °C with stirring at 500 rpm. The samples were taken at the start time and after 24 h of incubation, filtered through 0.22 µm filters, and diluted with two volumes of acetonitrile. UHPLC-UV/Vis determined sample concentrations. A calibration curve was prepared to quality the compound’s contents in the test solution.

[7] = Metabolic phase I stability in mouse microsomes; assay type: in vitro ADME; conditions: NADPH, 37 °C; for microsomal CLint at 1 μM: heading: MLM Cl; for half-life at 1 μM: read-out: MLM t1/2
Description: (§3) Assessment of metabolic phase I stability in mouse (CD-1™) and human microsomes (Thermo-Fisher Scientific, Waltham, MA, USA) was performed on 96-well non-binding plates (Greiner, Frickenhausen, Germany) at 1 μM concentration for verapamil (positive control) and donepezil (negative control) and tested compounds. Unless otherwise stated, all chemicals and materials were ordered from Merck Life Science (Palo Alto, CA, USA). Each biological replicate was prepared in triplicates. Briefly, mixtures were incubated in 100 mM potassium phosphate buffer with microsomes (0.5 mg/mL) and NADPH (1–1.2 mM) on a plate shaker (500 rpm) in the dark at 37 °C. A 4× solution of NADPH, a cofactor for metabolic enzymes, was prepared directly prior to the experiment by reducing NADP with G6P dehydrogenase (13.2 mM MgCl2, 13.2 mM G6P, 5.2 mM NADP, 3.2 U/mL G6P dehydrogenase, 20 min at 30 °C, 500 rpm). The negative control contained buffer instead of NADPH solution. Samples were collected at 0, 10, 20, and 40 min or 0 and 40 min for the negative and double negative controls. The reaction was stopped by protein precipitation in 2 volumes of ice-cold MeOH with 200 nM imipramine (an internal standard for LC-MS analysis). Then, the extract was mixed (1 min, 1000 rpm), filtered through a 0.22 μm filter on a 96-well plate vacuum manifold, and subjected to LC-MS analysis.

[8] = Metabolic phase I stability in human microsomes; assay type: in vitro ADME; conditions: human microsomes 0.5 mg/mL, NADPH, 37 °C; for half-life at 1 μM: read-out: HLM t1/2
Description: as §3

[9] = CD-1, liver microsomes, mouse microsomes 0.5 mg/mL

Structure (SMILES) | IC50 ([1]; read-out: IC50 PI3K δ) [µM] | IC50 [2] [µM] | Fold Selectivity α/δ [2] | Fold Selectivity β/δ [3] | IC50 ([3]; recombinant kinase, ADP-Glo, mean of two independent experiments, read-out: IC50 PI3K β) [µM] | Fold Selectivity γ/δ [4] | IC50 ([4]; recombinant kinase, ADP-Glo, mean of two independent experiments, read-out: IC50 PI3K γ) [µM] | IC50 [5] [µM] | solubility kinetic at 24 h [6] [µM] | microsomal CLint at 1 μM [7, 9] [µL/min/mg] | half-life at 1 μM [7, 9] [h] | microsomal CLint at 1 μM ([8]; liver microsomes, heading: HLM Cl) [µL/min/mg] | half-life at 1 μM ([8]; liver microsomes) [h] | IC50 ([1]; IC50 PI3K δ) [µM] | IC50 [3] [µM] | IC50 [4] [µM] | microsomal CLint at 1 μM ([7]; CD-1, microsomes, mouse microsomes 0.5 mg/mL) [µL/min/mg] | half-life at 1 μM ([7]; CD-1, mouse microsomes 0.5 mg/mL) [h] | half-life at 1 μM [8] [h]
CC(C)(C)N1CCN(Cc2cc3nc(-c4cccc5[nH]ccc45)cc(N4CCOCC4)n3n2)CC1 [Compound 37, 2-((4-tert-butylpiperazin-1-yl)methyl)-5-(1H-indol-4-yl)-7-(morpholin-4-yl)pyrazolo[1,5-a]pyrimidine] | 0.0066 | 12.5 | 1889 | 829 | 5.47 | >9091 | > 60 | 0.02 | 444 (≈ 210 µg/mL) | 13.7 | 2.1 | 22.8 | 1.27 | – | – | – | – | – | –
CC(C)(C)N1CCN(Cc2cc3nc(-c4cncc5[nH]ccc45)cc(N4CCOCC4)n3n2)CC1 [Compound 54, 2-((4-tert-butylpiperazin-1-yl)methyl)-5-(1H-pyrrolo [2,3-c]pyridin-4-yl)-7-(morpholin-4-yl)pyrazolo[1,5-a]pyrimidine] | – | 2.67 | 954 | 7714 | – | 12,286 | – | 0.019 | > 500 | – | – | – | – | 0.0028 | 21.6 | 34.4 | 7 | 3.3 | 6.17
